Reference: patent publication US5070210A, “Novel ketenimines as intermediates for insecticides” (ICI Americas Inc., priority 1990, dated 1991)

Columns and labels:
Assay type in all cases: in vivo
[1] = tested on: Housefly [Musca domestica]; assay: Housefly insecticidal test; settings: μg per 25 female flies; mortality after 48 hours
Method: (§1) The compounds in Tables 1 and 2 above were tested for insecticidal activity using the following testing procedures. LC50 values, based on the results of these tests and calculated according to dosage-mortality curves, are expressed in Table 3.
Housefly [Musca domestica]:
Test compounds were diluted in acetone and aliquots pipetted onto the bottom of aluminum dishes. To ensure even spreading of the chemical on the bottom of the dishes, 1 ml of acetone containing 0.01% peanut oil was also added to each dish. After all solvents had evaporated, the dishes were placed in circular cardboard cages containing 25 female houseflies, 1-2 days old. The cages were covered on the bottom with cellophane and on the top with tulle netting, and each contained a sugar-water saturated cotton plug for maintenance of the flies. Mortality was recorded after 48 hours. Test levels ranged from 100 μg/25 female houseflies downward. The LC-50 value is expressed below in Table 3 under the heading "HF", in terms of μg of the test compound per 25 female flies.

[2] = tested on: Tobacco Budworm [Heliothis virescens (Fabricius)] eggs; assay: Tobacco budworm egg test; settings: 2-day old eggs, percent in solution
Method: as §1
Tobacco Budworm [Heliothis virescens (Fabricius)]:
(b). Eggs: Paper towel patches of 2-day old eggs of the tobacco budworm were dipped in acetone solutions of the test compound and placed in petri dishes containing a portion of larval rearing medium. Treated eggs were maintained at 78° F. and mortality was recorded after all control eggs had hatched and the young larvae were feeding on the media. Test concentrations ranged from 0.1% downward. The LC-50 value is expressed below in Table 3 under the heading "TBW-E" in terms of percent of the test compound in the solution.

[3] = tested on: Cabbage Looper [Trichoplusia ni (Hubner)]; assay: Cabbage looper insecticidal test; settings: second-instar larvae, percent in solution; 3-5 days
Method: as §1
Cabbage Looper [Trichoplusia ni (Hubner)]:
Test compounds were diluted in a 50-50 acetone-water solution. Cotyledons of hyzini squash (Calabacita abobrinha), approximately 1×1.5 inches, were immersed in the test solutions for 2-3 seconds and placed on a wire screen to dry. The dried leaves were placed in petri dishes containing a moistened piece of filter paper and infested with 5 second-instar cabbage looper larvae. The dishes were placed in a high humidity chamber. Mortality of the larvae was recorded 3-5 days later. Test concentrations ranged from 0.1% downward. The LC-50 value is expressed below in Table 3 under the heading "CL" in terms of percent of the test compound in solution.

Compound | LC50, HF [1] | LC50, TBW, E (TBW-E) [2] | LC50, CL [3]
CCC(C)C(=Nc1ccc(Cl)c(Cl)c1)OCc1cccc(Oc2ccc(F)cc2)c1 (stereo not shown) [Compound 211] | 61 µg | > 0.1% | 0.0017%
CC(C)C(=Nc1ccc(F)c(Cl)c1)OCc1cccc(Oc2ccc(I)cc2)c1 [Compound 447] | 33 µg | > 0.1% | 0.0009%
CC(C)C(=Nc1ccc2c(c1)OC(C)(C)O2)OCc1cccc(Oc2ccccc2)c1 [Compound 182] | 28 µg | 0.04% | 0.0006%
CC(C)C(=Nc1ccc2c(c1)OC(C)(C)O2)OCc1cccc(Oc2ccc(Cl)cc2)n1 [Compound 468] | 50 µg | > 0.1% | > 0.1%
COc1ccc(Cl)cc1N=C(OCc1cccc(Oc2ccccc2)c1)C(C)C [Compound 264] | > 100 µg | > 0.1% | 0.03%
CC(C)C(=Nc1ccc2c(c1)OCO2)OCc1cccc(Oc2ccccc2)n1 [Compound 467] | 6 µg | 0.04% | 0.003%
CC(C)(F)C(=Nc1ccc(F)c(F)c1)OCc1cccc(Oc2ccc(F)cc2)c1 [Compound 318] | 19 µg | > 0.1% | 0.0007%
CCCCc1ccc(N=C(OCc2cccc(Oc3ccccc3)c2)C(C)C)cc1 [Compound 152] | > 100 µg | > 0.1% | 0.009%
CCC(C)C(=Nc1ccc(C(C)C)cc1)OCc1cccc(Oc2ccccc2)c1 (stereo not shown) [Compound 317] | > 100 µg | 0.03% | 0.0045%
COc1ccc(Oc2cccc(COC(=Nc3ccc(Cl)c(Cl)c3)C(C)C)c2)cc1 [Compound 223] | 43 µg | > 0.1% | 0.008%
CC(C)C(=Nc1ccc(F)c(Cl)c1)OC(F)c1cccc(Oc2ccc(F)cc2)c1 (stereo not shown) [Compound 502] | 80 µg |  | 
Cc1c(COC(=Nc2ccc(Cl)cc2)C(C)C)cccc1-c1ccccc1 [Compound 455] | > 100 µg | > 0.1% | 0.0025%
CC(C)C(=Nc1cccc(F)c1)OCc1cccc(Oc2ccc(F)cc2)c1 [Compound 200] | 7.5 µg | 0.1% | 0.00075%
CC(C)C(=Nc1ccc(F)c(Br)c1)OCc1cccc(Oc2ccc(Br)cc2)c1 [Compound 276] | 39 µg | 0.1% | 0.002%
CC(C)C(=Nc1ccc(F)c(Cl)c1)OCc1cccc(Oc2ccncc2)c1 [Compound 470] | 25 µg | > 0.1% | 0.02%
Cc1ccc(Oc2cccc(COC(=Nc3ccc(F)cc3)C(C)C)c2)cc1 [Compound 231] | > 100 µg | > 0.1% | 0.003%
CC(C)C(=Nc1ccc(OC(F)(F)F)cc1)OCc1cccc(Cc2ccccc2)c1 [Compound 542] | > 100 µg |  | > 0.01%
COc1cc(N=C(OCc2cccc(Oc3ccccc3)c2)C(C)C)cc(OC)c1OC [Compound 248] | 40 µg | > 0.1% | 0.02%
CC(C)C(=Nc1ccc(Cl)c(Cl)c1)OCc1cccc(Oc2ccc(F)c(F)c2)c1 [Compound 218] | 25 µg | 0.025% | 0.0003%

Compound | LC50, HF [1] | LC50, TBW, E (TBW-E) [2] | LC50, CL [3]
CC(C)C(=Nc1ccc(C(C)(C)C)cc1)OCc1cccc(Oc2ccc(F)cc2)c1 [Compound 235] | > 100 µg | > 0.1% | 0.004%
CC(C)(F)C(=Nc1cccc(C(F)(F)F)c1)OCc1cccc(Oc2ccc(F)cc2)c1 [Compound 319] | 44 µg | > 0.1% | 0.0007%
CCC(=Nc1ccc(CC)cc1)OCc1cccc(Oc2ccccc2)c1 [Compound 157] | 25 µg | > 0.1% | 0.009%
CC(C)C(=Nc1ccc(C(C)(C)C)cc1)OCc1cccc(Oc2ccc(Cl)cc2)n1 [Compound 497] | > 100 µg | > 0.1% | 0.0075%
COc1ccc(Oc2cccc(COC(=Nc3ccc(F)c(Cl)c3)C(C)C)c2)cc1 [Compound 221] | 62 µg | > 0.1% | 0.0027%
Cc1ccc(N=C(OCc2cccc(Oc3ccccc3)c2)C(C)(C)C)cc1C [Compound 167] | > 100 µg | > 0.1% | 0.02%
FC(F)(F)c1cccc(N=C(OCc2cccc(Oc3ccccc3)c2)C2CC2)c1 [Compound 86] | 65 µg | > 0.1% | 0.013%
CC(C)C(=Nc1ccc(F)c(F)c1)OCc1cccc(Oc2ccc(C#N)cc2)c1 [Compound 212] | 20 µg | 0.045% | 0.0005%
CC(C)C(=Nc1cc(C(F)(F)F)ccc1F)OCc1cccc(Oc2ccccc2)c1 [Compound 84] | 93 µg | 0.1% | 0.006%
CC(C)(C)C(=Nc1ccc(Br)c(Cl)c1)OCc1cccc(Oc2ccccc2)c1 [Compound 106] | > 100 µg | > 0.1% | 0.014%
CC(C)C(=Nc1cccc(SC(F)(F)F)c1)OCc1cccc(Oc2ccc(F)cc2)c1 [Compound 272] | > 100 µg | > 0.1% | 0.0024%
CC(C)C(=Nc1ccc(C#N)cc1)OCc1cccc(Oc2ccc(F)cc2)c1 [Compound 227] | 10 µg | 0.1% | 0.0015%
CCSc1ccc(N=C(OCc2cccc(Oc3ccccc3)c2)C(C)C)cc1Cl [Compound 103] | > 100 µg | > 0.1% | 0.015%
CC(C)C(=Nc1ccc(F)c(Cl)c1)OCc1ccc(F)c(Br)c1 [Compound 473] | > 100 µg | > 0.1% | 0.025%
CC(C)C(=Nc1cccc(C(F)(F)F)c1)OCc1cccc(Oc2cccc(F)c2)c1 [Compound 192] | 25 µg | 0.07% | 0.0012%
CC(C)C(=Nc1ccc(Cl)c(Cl)c1)OCc1cccc(Oc2cccc(F)c2)c1 [Compound 40] | 36 µg | 0.08% | 0.0025%
CC(C)C(=Nc1ccc2c(c1)OCO2)OCc1cc(Oc2ccc(F)cc2)ccc1Cl [Compound 274] | > 100 µg | > 0.1% | 0.1%
CC(C)C(=Nc1cccc(Oc2ccccn2)c1)OCc1cccc(Oc2ccccc2)c1 [Compound 114] | 92 µg |  | < 0.1%
FC(F)(F)c1ccc(Oc2ccc(COC(=Nc3ccc(Cl)cc3)C(Cl)Cl)cc2)nc1 [Compound 453] | > 100 µg |  | 0.1%
